What was measured:
[1] = system: PCR product of HBV wild type; assay: PNA microarray hybridization with biotinylated PCR product, streptavidine-Cy5 fluorescence (single mismatch); type: binding, hepatitis B virus (HBV); conditions: hybridization at 40° C. for 2 hours, fluorescence scanner, SEQ ID Nos. 2 to 4 compared to SEQ ID No. 1
[2] = system: PCR product of HBV mutant type; assay: PNA microarray hybridization with biotinylated PCR product, streptavidine-Cy5 fluorescence (perfect match); type: binding, hepatitis B virus (HBV)
Procedure: The purified oligomer was diluted at a concentration of […], and spotted on a slide glass functionalized with epoxy group (Panagene, Korea) in pin mode, and the slide was allowed to stand for 4 hours at room temperature while maintaining 75% humidity. Then, it was immersed into DMF, and washed by ultrasonication for 15 minutes. It was immersed into DMF containing 0.1 M succinic anhydride and reacted at 40° C. for 2 hours. And the reaction mixture was washed by ultrasonication with DMF and deionized water, sequentially, for 15 minutes per time. Then, the slide was treated with 100 mM Tris-HCl buffer containing 0.1 M ethanolamine for 2 hours to inactivate the residual epoxy groups on the surface of the slide glass. The slide glass was washed by ultrasonication with deionized water, twice for 15 minutes per time, treated with boiling water for 5 minutes, washed with deionized water for 5 minutes, and dried. Then, a PNA microarray was ready for hybridization after attaching a silicon rubber sealing mat having holes, which can contain 100 μl of hybridization solution, to the slide glass.
To a hybridization solution of 100 μl was added 5 μl of the PCR product of HBV mutant type having biotin attached thereto, and streptavidine-Cy5 was added thereto to cause fluorescent reaction. […] The PNA microarray was scanned by a fluorescence scanner. […]

Substance: k(k)k-OO-GAGCCATGAGAAA (all peptide nucleic acid (PNA); N-terminal lysines and OO linker attached) [SEQ ID No. 1, PNA oligomer, 13 mer consisting of natural bases to detect mutation]
- single mismatch signal [1]: intensive single mismatch signal
- perfect match signal ([2]; PCR product of HBV mutant type, hybridization at 40° C. for 2 hours, fluorescence scanner, FIGS. 2 and 3): intensive perfect match signal
- discriminability of HBV mutant type against wild type ([2]; perfect match signal for HBV mutant type versus single mismatch signal for HBV wild type): cannot discriminate HBV mutant type against wild type
